Measured values as given in patent publication US20120045393A1 (priority 2009, published 2012).
Non-standard residues stand in square brackets, D forms with d. Residues, ends and D or L forms follow the SMILES beside them. *: point of attachment. DOTA = O=C(O)CN1CCN(CC(=O)O)CCN(CC(=O)*)CCN(CC(=O)O)CC1; Bpa = N[C@@H](Cc1ccc(C(=O)c2ccccc2)cc1)C(=O)O; d2Nal = N[C@H](Cc1ccc2ccccc2c1)C(=O)O; Nicotinoyl = O=C(c1cccnc1)*; azaGly = NNC(=O)O; Sar = CNCC(=O)O

System: LHRH binding sites on human ovarian cancer cells (EFO-27)
Conditions: not given
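Further: Cell-associated radioactivity on confluent EFO-27 monolayers in 96-well plates, measured by microplate scintillation counting.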

| SMILES | EC50 [nM] |
| --- | --- |
| CN(CC(=O)N[C@@H](Cc1c[nH]cn1)C(=O)N[C@@H](Cc1c[nH]c2ccccc12)C(=O)N[C@@H](CO)C(=O)N[C@@H](Cc1c[nH]cn1)C(=O)N[C@H](CCCNC(=N)N)C(=O)N[C@@H](Cc1c[nH]c2ccccc12)C(=O)N[C@@H](Cc1c[nH]c2ccccc12)C(=O)N1CCC[C@H]1C(=O)NNC(N)=O)C(=O)CN1CCN(CC(=O)O)CCN(CC(=O)O)CCN(CC(=O)O)CC1 [BRU-2724] (HELM PEPTIDE1{[O=C(O)CN1CCN(CC(=O)O)CCN(CC(=O)[*:2])CCN(CC(=O)O)CC1].[Sar].H.W.S.H.[dR].W.W.P.[O=C(NN[*:1])[*:2]].[am]}$$$$V2.0) | 2670 |
| CN(CC(=O)N[C@@H](Cc1c[nH]cn1)C(=O)N[C@@H](Cc1c[nH]c2ccccc12)C(=O)N[C@@H](CO)C(=O)N[C@@H](Cc1c[nH]cn1)C(=O)N[C@H](CCCCNC(=O)c1cccnc1)C(=O)N[C@@H](Cc1c[nH]c2ccccc12)C(=O)N[C@@H](Cc1ccc(O)cc1)C(=O)N1CCC[C@H]1C(=O)NNC(N)=O)C(=O)CN1CCN(CC(=O)O)CCN(CC(=O)O)CCN(CC(=O)O)CC1 [compound 2674] ({DOTA}-[Sar]HWSH[dK](Nicotinoyl)WYP[azaGly]-NH2) | 22600 |
| N=C(N)NCCC[C@H](NC(=O)[C@@H](Cc1ccc2ccccc2c1)NC(=O)CN1CCN(CC(=O)O)CCN(CC(=O)O)CCN(CC(=O)O)CC1)C(=O)N[C@@H](Cc1c[nH]c2ccccc12)C(=O)N[C@@H](CO)C(=O)N[C@@H](Cc1cscn1)C(=O)N[C@H](CCCNC(=N)N)C(=O)N[C@@H](Cc1c[nH]c2ccccc12)C(=O)N[C@@H](Cc1ccc(C(=O)c2ccccc2)cc1)C(=O)N1CCC[C@H]1C(=O)NNC(N)=O [compound 2958] | 710 |
| CNCC(=O)N[C@@H](CCCNC(=N)N)C(=O)N[C@@H](Cc1c[nH]c2ccccc12)C(=O)N[C@@H](CO)C(=O)N[C@@H](Cc1c[nH]cn1)C(=O)N[C@H](CCCNC(=N)N)C(=O)N[C@@H](Cc1c[nH]c2ccccc12)C(=O)N[C@@H](Cc1ccc(C(=O)c2ccccc2)cc1)C(=O)N1CCC[C@H]1C(=O)NCCOCCNC(=O)CN1CCN(CC(=O)O)CCN(CC(=O)O)CCN(CC(=O)O)CC1 [compound 3039] | 280 ± 30 |
| CNCC(=O)N[C@@H](CCCNC(=N)N)C(=O)N[C@@H](Cc1c[nH]c2ccccc12)C(=O)N[C@@H](CO)C(=O)N[C@@H](Cc1c[nH]cn1)C(=O)N[C@H](CCCNC(=N)N)C(=O)N[C@@H](Cc1c[nH]c2ccccc12)C(=O)N[C@@H](Cc1ccc(C(=O)c2ccccc2)cc1)C(=O)N1CCC[C@H]1C(=O)NCCCN1CCN(CCCNC(=O)CN2CCN(CC(=O)O)CCN(CC(=O)O)CCN(CC(=O)O)CC2)CC1 [compound 3044] | 240 ± 80 |
| CN(CC(=O)N[C@@H](Cc1c[nH]cn1)C(=O)N[C@@H](Cc1c[nH]c2ccccc12)C(=O)N[C@@H](CO)C(=O)N[C@@H](Cc1c[nH]cn1)C(=O)N[C@H](CCCNC(=N)N)C(=O)N[C@@H](Cc1c[nH]c2ccccc12)C(=O)N[C@@H](Cc1ccc2ccccc2c1)C(=O)N1CCC[C@H]1C(=O)NNC(N)=O)C(=O)CN1CCN(CC(=O)O)CCN(CC(=O)O)CCN(CC(=O)O)CC1 [BRU-2624] | 2010 |
| N=C(N)NCCC[C@H](NC(=O)[C@@H](Cc1ccc2ccccc2c1)NC(=O)CN1CCN(CC(=O)O)CCN(CC(=O)O)CCN(CC(=O)O)CC1)C(=O)N[C@@H](Cc1c[nH]c2ccccc12)C(=O)N[C@@H](Cc1c[nH]c2ccccc12)C(=O)N[C@@H](Cc1c[nH]cn1)C(=O)N[C@H](CCCNC(=N)N)C(=O)N[C@@H](Cc1c[nH]c2ccccc12)C(=O)N[C@@H](Cc1ccc(C(=O)c2ccccc2)cc1)C(=O)N1CCC[C@H]1C(=O)NNC(N)=O [compound 3114] ({DOTA}-[d2Nal]RWWH[dR]W[Bpa]P[azaGly]-NH2) | 11500 |
| N=C(N)NCCC[C@H](NC(=O)[C@@H](Cc1ccc2ccccc2c1)NC(=O)CN1CCN(CC(=O)O)CCN(CC(=O)O)CCN(CC(=O)O)CC1)C(=O)N[C@@H](Cc1c[nH]c2ccccc12)C(=O)N[C@@H](CO)C(=O)N[C@@H](Cc1c[nH]cn1)C(=O)N[C@H](CCCNC(=N)N)C(=O)N[C@@H](Cc1c[nH]c2ccccc12)C(=O)O [BRU-3046, DO3A10CM-Dna12-Arg-Trp-Ser-His-Darg-Trp-OH] (HELM PEPTIDE1{[O=C(O)CN1CCN(CC(=O)O)CCN(CC(=O)[*:2])CCN(CC(=O)O)CC1].[O=C([C@@H](Cc1ccc2ccccc2c1)N[*:1])[*:2]].R.W.S.H.[dR].W}$$$$V2.0) | 15800 |
| N=C(N)NCCC[C@H](NC(=O)[C@@H](Cc1ccc2ccccc2c1)NC(=O)CN1CCN(CC(=O)O)CCN(CC(=O)O)CCN(CC(=O)O)CC1)C(=O)N[C@@H](Cc1c[nH]c2ccccc12)C(=O)N[C@@H](CO)C(=O)N[C@@H](Cc1c[nH]cn1)C(=O)N[C@H](CCCNC(=N)N)C(=O)N[C@@H](Cc1c[nH]c2ccccc12)C(=O)N[C@@H](Cc1ccc(C(=O)c2ccccc2)cc1)C(=O)N1CCC[C@H]1C(=O)NCCO [compound 2970] | 510 |
| CN(CC(=O)N[C@@H](Cc1c[nH]cn1)C(=O)N[C@@H](Cc1c[nH]c2ccccc12)C(=O)N[C@@H](CO)C(=O)N[C@@H](Cc1c[nH]cn1)C(=O)N[C@H](CCCNC(=N)N)C(=O)N[C@@H](Cc1c[nH]c2ccccc12)C(=O)N[C@@H](CCCNC(=N)N)C(=O)N1CCC[C@H]1C(=O)NNC(N)=O)C(=O)CN1CCN(CC(=O)O)CCN(CC(=O)O)CCN(CC(=O)O)CC1 [BRU-2723] (HELM PEPTIDE1{[O=C(O)CN1CCN(CC(=O)O)CCN(CC(=O)[*:2])CCN(CC(=O)O)CC1].[Sar].H.W.S.H.[dR].W.R.P.[O=C(NN[*:1])[*:2]].[am]}$$$$V2.0) | 2830 |
| CNCC(=O)N[C@@H](CCCNC(=N)N)C(=O)N[C@@H](Cc1c[nH]c2ccccc12)C(=O)N[C@@H](CO)C(=O)N[C@@H](Cc1c[nH]cn1)C(=O)N[C@H](CCCNC(=N)N)C(=O)N[C@@H](Cc1c[nH]c2ccccc12)C(=O)N[C@@H](Cc1ccc(C(=O)c2ccccc2)cc1)C(=O)N1CCC[C@H]1C(=O)NCC1CCCCN1C(=O)CN1CCN(CC(=O)O)CCN(CC(=O)O)CCN(CC(=O)O)CC1 (some centres unmarked) [compound 3102] | 200 ± 70 |
| CNCC(=O)N[C@@H](CCCNC(=N)N)C(=O)N[C@@H](Cc1c[nH]c2ccccc12)C(=O)N[C@@H](CO)C(=O)N[C@@H](Cc1c[nH]cn1)C(=O)N[C@H](CCCNC(=N)N)C(=O)N[C@@H](Cc1c[nH]c2ccccc12)C(=O)N[C@@H](Cc1ccc(C(=O)c2ccccc2)cc1)C(=O)N1CCC[C@H]1C(=O)NCCNC(=O)CN1CCN(CC(=O)O)CCN(CC(=O)O)CCN(CC(=O)O)CC1 [BRU-3103] | ≤ 200 |
| CCNC(=O)[C@@H]1CCCN1C(=O)[C@H](Cc1ccc(C(=O)c2ccccc2)cc1)NC(=O)[C@H](Cc1c[nH]c2ccccc12)NC(=O)[C@@H](CCCNC(=N)N)NC(=O)[C@H](Cc1c[nH]cn1)NC(=O)[C@H](CO)NC(=O)[C@H](Cc1c[nH]c2ccccc12)NC(=O)[C@H](CCCNC(=N)N)NC(=O)[C@@H](Cc1ccc2ccccc2c1)NC(=O)CN1CCN(CC(=O)O)CCN(CC(=O)O)CCN(CC(=O)O)CC1 [compound 2981] | 970 |

Same assay, conditions: BRU-2441 vs BRU-2439; BRU-2666 vs Sar1 analog; BRU-3072 vs Pro9 analog

| SMILES | times more potent than the comparator analog |
| --- | --- |
| CNCC(=O)N[C@@H](Cc1c[nH]cn1)C(=O)N[C@@H](Cc1c[nH]c2ccccc12)C(=O)N[C@@H](CO)C(=O)N[C@@H](Cc1cnc[nH]1)C(=O)N[C@H](CCCNC(=N)N)C(=O)N[C@@H](Cc1c[nH]c2ccccc12)C(=O)N[C@@H](Cc1ccc(C(=O)c2ccccc2)cc1)C(=O)N1CCC[C@H]1C(=O)NNC(N)=O [BRU-2441, Sar-His-Trp-Ser-His-Darg-Trp-Bpa-Pro-azaGly-NH2] | ~2 |

Same assay, conditions: EFO-27 cells, competition with [125I-Tyr8]BRU-2477, 90 min

| SMILES | EC50 [nM] |
| --- | --- |
| CN(CC(=O)N[C@@H](Cc1c[nH]cn1)C(=O)N[C@@H](Cc1c[nH]c2ccccc12)C(=O)N[C@@H](CO)C(=O)N[C@@H](Cc1c[nH]cn1)C(=O)N[C@H](Cc1c[nH]c2ccccc12)C(=O)N[C@@H](Cc1c[nH]c2ccccc12)C(=O)N[C@@H](Cc1ccc(C(=O)c2ccccc2)cc1)C(=O)N1CCC[C@H]1C(=O)NNC(N)=O)C(=O)CN1CCN(CC(=O)O)CCN(CC(=O)O)CCN(CC(=O)O)CC1 [compound 2731] ({DOTA}-[Sar]HWSH[dW]W[Bpa]P[azaGly]-NH2) | 1360 |
| CN(CC(=O)N[C@@H](Cc1c[nH]cn1)C(=O)N[C@@H](Cc1c[nH]c2ccccc12)C(=O)N[C@@H](CO)C(=O)N[C@@H](Cc1c[nH]cn1)C(=O)N[C@H](CCCNC(=N)N)C(=O)N[C@@H](Cc1c[nH]c2ccccc12)C(=O)N[C@@H](Cc1ccc(C(=O)c2ccccc2)cc1)C(=O)N1CCC[C@H]1C(=O)NNC(N)=O)C(=O)CN1CCN(CC(=O)O)CCN(CC(=O)O)CCN(CC(=O)O)CC1 [BRU-2443] | 950 |

Same assay, conditions: Table 5: modifications of amino acids at positions 1 and 2; in vitro binding on EFO-27 cells

| SMILES | EC50 [nM] |
| --- | --- |
| CN(CC(=O)N[C@@H](Cc1cncn1C)C(=O)N[C@@H](Cc1c[nH]c2ccccc12)C(=O)N[C@@H](CO)C(=O)N[C@@H](Cc1c[nH]cn1)C(=O)N[C@H](CCCNC(=N)N)C(=O)N[C@@H](Cc1c[nH]c2ccccc12)C(=O)N[C@@H](Cc1ccc(C(=O)c2ccccc2)cc1)C(=O)N1CCC[C@H]1C(=O)NNC(N)=O)C(=O)CN1CCN(CC(=O)O)CCN(CC(=O)O)CCN(CC(=O)O)CC1 [BRU-2759] | 10000 |
| N=C(N)NCCC[C@@H](NC(=O)[C@H](Cc1c[nH]cn1)NC(=O)[C@H](CO)NC(=O)[C@H](Cc1c[nH]c2ccccc12)NC(=O)[C@H](Cc1c[nH]cn1)NC(=O)CNC(=O)CNC(=O)CN1CCN(CC(=O)O)CCN(CC(=O)O)CCN(CC(=O)O)CC1)C(=O)N[C@@H](Cc1c[nH]c2ccccc12)C(=O)N[C@@H](Cc1ccc(C(=O)c2ccccc2)cc1)C(=O)N1CCC[C@H]1C(=O)NNC(N)=O [BRU-2795] | 1370 |
| N=C(N)NCCC[C@@H](NC(=O)[C@H](Cc1c[nH]cn1)NC(=O)[C@H](CO)NC(=O)[C@H](Cc1c[nH]c2ccccc12)NC(=O)[C@H](Cc1c[nH]cn1)NC(=O)[C@@H](Cc1ccccc1)NC(=O)CN1CCN(CC(=O)O)CCN(CC(=O)O)CCN(CC(=O)O)CC1)C(=O)N[C@@H](Cc1c[nH]c2ccccc12)C(=O)N[C@@H](Cc1ccc(C(=O)c2ccccc2)cc1)C(=O)N1CCC[C@H]1C(=O)NNC(N)=O [BRU-2894] | 2000 |

Same assay, conditions: Table 11: modification of amino acid at position 5; EFO-27 cells

| SMILES | EC50 [nM] |
| --- | --- |
| CC(C)C[C@H](NC(=O)[C@@H](CCCNC(=N)N)NC(=O)[C@H](Cc1ccc(O)cc1)NC(=O)[C@H](CO)NC(=O)[C@H](Cc1c[nH]c2ccccc12)NC(=O)[C@H](Cc1c[nH]cn1)NC(=O)CN(C)C(=O)CN1CCN(CC(=O)O)CCN(CC(=O)O)CCN(CC(=O)O)CC1)C(=O)N[C@@H](Cc1ccc(C(=O)c2ccccc2)cc1)C(=O)N1CCC[C@H]1C(=O)NNC(N)=O [compound 2670] ({DOTA}-[Sar]HWSY[dR]L[Bpa]P[azaGly]-NH2) | 8840 |
